SMILES strings stand for the structures.

The species named for one test is Oryctolagus cuniculus. Put plainly: The compound was tested for its […] activity using rabbit saphenous vein (RSV) preparation. The test is classed as functional.
Test [1] has as its target 5-hydroxytryptamine receptor 1B (Homo sapiens, UniProt P28222). Put plainly: Binding affinity towards cloned human 5-hydroxytryptamine 1B receptor.
For test [2], the target named is 5-hydroxytryptamine receptor 1D (Homo sapiens, UniProt P28221). Put plainly: Binding affinity for human 5-hydroxytryptamine 1D receptor.
Sequence of 5-hydroxytryptamine receptor 1D (P28221 whole entry): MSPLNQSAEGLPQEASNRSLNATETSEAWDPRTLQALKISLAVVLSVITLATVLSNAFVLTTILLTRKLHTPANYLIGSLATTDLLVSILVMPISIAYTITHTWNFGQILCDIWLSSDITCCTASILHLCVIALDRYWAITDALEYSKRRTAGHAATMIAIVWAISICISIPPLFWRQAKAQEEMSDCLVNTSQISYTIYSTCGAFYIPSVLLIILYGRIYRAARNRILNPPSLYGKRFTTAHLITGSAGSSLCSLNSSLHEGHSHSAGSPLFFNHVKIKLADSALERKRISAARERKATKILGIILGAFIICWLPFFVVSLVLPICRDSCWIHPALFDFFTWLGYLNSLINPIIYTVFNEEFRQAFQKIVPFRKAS

Sequence of 5-hydroxytryptamine receptor 1B (P28222 whole entry): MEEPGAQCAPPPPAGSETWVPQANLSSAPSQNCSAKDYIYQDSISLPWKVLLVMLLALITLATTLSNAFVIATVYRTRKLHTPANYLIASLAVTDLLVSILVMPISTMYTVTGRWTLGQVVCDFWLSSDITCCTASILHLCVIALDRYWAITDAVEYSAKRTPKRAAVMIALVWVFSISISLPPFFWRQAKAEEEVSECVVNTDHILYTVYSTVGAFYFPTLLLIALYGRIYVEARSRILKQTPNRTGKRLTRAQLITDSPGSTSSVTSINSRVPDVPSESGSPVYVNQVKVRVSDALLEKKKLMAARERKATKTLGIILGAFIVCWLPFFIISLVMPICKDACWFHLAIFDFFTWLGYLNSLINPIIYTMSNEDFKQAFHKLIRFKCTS

Consider `CNS(=O)(=O)Cc1ccc2[nH]cc(CCN(C)C)c2c1`, for which the EC50 (in general, the concentration at which the effect is half-maximal) in the test listed under Oryctolagus cuniculus came to 174 nM.
On to `CC(C)(C)c1ccc2[nH]cc(CCN3CCCC3)c2c1`, for which the Ki (usually the dissociation constant of the complex between target and ligand, obtained from inhibition or displacement) in test [1] came to 312 nM; in test [2], 2.5 nM. Moreover, the EC50 in the test filed under Oryctolagus cuniculus worked out at 1170 nM.
The matching figures for `CC(C)c1ccc2[nH]cc(CCN3CCCC3)c2c1`: 472 nM, 5.3 nM and 440 nM.
Take `CC(C)c1ccc2[nH]cc(CCN(C)C)c2c1`: the Ki amounted to 14.2 nM in test [1] and 0.4 nM in test [2].
As to `Cc1ccc2[nH]cc(C[C@H]3CCCN3C)c2c1`, the results for the Ki in test [1] and in test [2] were 118 nM and 3.5 nM, respectively. The midpoint of the response in the test listed under Oryctolagus cuniculus, the EC50, lay at 102 nM.
In test [2], `Cn1cc(CCN)c2cc(C(C)(C)C)ccc21` yielded a Ki of 0.45 nM.
`CC(C)c1ccc2[nH]cc(C[C@H]3CCCN3C)c2c1`: the figures for the Ki in test [1] and in test [2] were 10.4 nM and 0.29 nM, respectively. In the test listed under Oryctolagus cuniculus, this compound came in with an EC50 of 28.6 nM.
The matching figures for `CCc1ccc2[nH]cc(C[C@H]3CCCN3C)c2c1`: 47 nM, 0.97 nM and 14.7 nM.
On to `CCc1ccc2[nH]cc(CCN3CCCC3)c2c1`, for which the Ki in test [1] turned out to be 1620 nM; in test [2], 45 nM.
As for `CN1CCC[C@@H]1Cc1c[nH]c2ccc(C(C)(C)C)cc12`, the Ki in test [1] was 15.5 nM; in test [2], 0.25 nM. Besides, in the test filed under Oryctolagus cuniculus, the EC50 was determined as 51.8 nM.
`CCc1ccc2[nH]cc(CCN(C)C)c2c1` showed a Ki in test [2] of 16 nM. The compound further showed an EC50 in the test filed under Oryctolagus cuniculus of 350 nM.

Values taken from ChEMBL document CHEMBL1133255 (Bioorg Med Chem Lett, 2000).
